Data reported in US20120208767A1, “Method to Detect or Treat Painful Bladder Syndrome based on Relation to Quinone Oxidoreductase 1” (University of Maryland, Baltimore, priority 2011, published 2012).
Peptide text beside a SMILES is read from it. * marks the point of attachment. Cbz = O=C(OCc1ccccc1)*

Tests used:
proteasome = test: Proteasome inhibition after NQO1 siRNA knockdown in T24 cells, Western blot; assay type: cell-based, human; conditions: NQO1 siRNA 24 h then MG-132 6 h, FIG. 6C
Experimental: Cell culture and Western blots. Cells were cultured in appropriate media (DMEM+1% p/s+10% FBS) and subcultured as necessary. Tissue homogenates were prepared by removing whole bladders from freshly-sacrificed mice killed with isoflurane inhalation and lysing tissue as a 10% homogenate in ice-cold RIPA buffer (50 mM Tris-Cl, pH 7.4, 150 mM NaCl, 1% NP-40, 1 mM EDTA, 0.5% Na Deoxycholate, and 1% Triton X100 with 1 mM PMSF and 1× Protease Inhibitor Cocktail (Complete, Roche)) using glass and Teflon pestle system, and further clarified via centrifugation at 14000 rpm at 4 degrees for 10 minutes. Homogenates were stored at −80° C. until use. Western blotting was performed essentially according to Towbin H, T. Staehelin, J. Gordon, “Electrophoretic transfer of proteins from polyacrylamide gels to nitrocellulose sheets: procedure and some applications,” Proc Natl Acad Sci USA, v76, pp 4350-4354, 1979.
(§1) FIG. 6A through FIG. 6E are Western blot images that illustrate example NQO1 regulation of energy metabolic regulator factor PGC1α in a bladder of a mouse model for PBS compared to wild-type mouse, according to an embodiment. FIG. 6A is a set of Western blot images that illustrate example relative occurrence of proteins in bladders from wild type mice (left) and NQO1−/− mice (right). Bladders from wild type and NQO1−/− mice were immunoblotted and probed with antibodies as indicated: for NQO1 in blot image 601; for AMPK in blot image 603; for CREB in blot image 605; and, for control GAPDH in blot image 607. FIG. 6B is a set of Western blot images that illustrate example relative occurrence of proteins in T24 human bladder carcinoma cells transfected with control (column C, 100 nM control siRNA) or NQO1-specific siRNA (columns 10, 50 and 150 nM NQO1 siRNA) for 24 h and then immunoblotted with indicated antibodies: for NQO1 in blot image 611; for CREB in blot image 613; for AMPK in blot image 615; for PGC1α in blot image 617; and, for control GAPDH in blot image 619. […]

[1] = tested on: wild-type and NQO1−/− bladder cells; test: Ex vivo bladder cell culture, B[α]P-induced ROS (DCF fluorescence); assay type: cell-based, mouse
Experimental: Ex-vivo cell culture and chemical treatment. Whole bladders from age-matched female wild-type and NQO1−/− 24 weeks-old mice were excised from euthanized mice and minced in a 10 cm dish with a razorblade. Pieces were suspended in microfuge tubes containing 500 microliters of 1% […] reconstituted in PBS and incubated at 37 degrees with 700 rpm shaking for 45 minutes to dissociate cells from tissue. Tubes were centrifuged at 500 g for 3 minutes to pellet cells, and resuspended in full cell culture media. Cells were plated in 8-well tissue culture chamber slides (e.g., from LAB-TEK™) with cells from one bladder equally divided into one 8-well slide, into 1 mL media total volume. After 2-4 days of growth with daily media changes, cells were treated with various concentrations of benzopyrene dissolved in acetone, or acetone control in fresh media for 18 h, followed by removal and addition of DCF (SIGMA ALDRICH™) at 5 micromolar for 1 h. DCF was then removed and full media added for 1 h, followed by immediate mounting of cover slips in VectaShield (VECTOR LABS™ of Burlingame, Calif.) and viewing under FITC-viewing filter to determine fluorescence of ROS-modified DCF within cells. […]

[2] = tested on: NQO1 and 20S proteasome interaction with CREB and AMPK in T24; test: Immunoprecipitation of CREB and AMPK from T24 cells incubated with B[α]P; assay type: cell-based, human; conditions: B[α]P 0, 10 and 100 nM, 16 h
Experimental: Immunoprecipitation. Human bladder carcinoma T24 cell line was cultured in DMEM+10% FBS+1% p/s at 37 degrees in 5% carbon dioxide before IP studies. Cells were incubated with chemicals as necessary and washed 3× in PBS on ice. Cells were scraped into microfuge tubes using RIPA buffer and protein A/G beads (SANTA CRUZ BIOTECH™ of Santa Cruz, Calif.) were equilibrated with 1 mg aliquots for 1 h. After equilibration, beads were removed and lysates were incubated o/n with 1:100 of relevant antibodies, and next day incubated with 30 microliters A/G beads for 1 h before 3× RIPA buffer wash and boiling 5 mins.
as §1, with “619. FIG. 6C is a set of Western blot images that illustrate example relative occurrence of proteins in T24 human bladder carcinoma cells transfected with control (column C, 100 nM control siRNA) or NQO1-specific siRNA (columns 50 and 100 nM NQO1 siRNA) for 24 h and then incubated for 6 h with vehicle (signified by -) or proteasome inhibitor MG-132 (signified by +) before lysis and separation via SDS-PAGE. The samples were probed with the antibodies indicated: for NQO1 in blot image 621; for CREB in blot image 623; for AMPK in blot image 625; for PGC1α in blot image 627; and, for control GAPDH in blot image 629. FIG. 6D and FIG. 6E are sets of Western blot images that illustrate example relative occurrence of proteins in T24 cells that were incubated for 16 h with B[α]P at concentrations of 0, 10 and 100 nanoMoles (nM, 1 nM=10^−9 Moles) and then immunoprecipitated with antibodies against CREB (in FIG. 6D) and AMPK (in FIG. 6E) overnight. IgG was used as immunoprecipitation control.” for “619.”

Row | Compound | rescue of AMPK protein from down regulation (proteasome) | rescue of CREB protein from down regulation (proteasome) | rescue of PGC1α protein from down regulation (proteasome) | stress signaling (count of ROS-positive, DCF-positive cells normalized to wild-type) ([1]; 100 μM B[α]P, 18 h, cells from 24 week-old female mice, NQO1−/− vs wild-type, P<0.05, FIG. 3C) | susceptibility to B[α]P-induced generation of reactive oxygen species (ROS) ([1]; NQO1−/− bladder cells relative to wild-type bladder cells, ex vivo) | 20S proteasome interaction with CREB ([2]; FIG. 6D) | NQO1 interaction with CREB ([2]; FIG. 6D) | 20S proteasome interaction with AMPK ([2]; FIG. 6E) | NQO1 interaction with AMPK ([2]; FIG. 6E)
1 | CC(C)C[C@@H](C=O)NC(=O)[C@H](CC(C)C)NC(=O)[C@H](CC(C)C)NC(=O)OCc1ccccc1 [MG-132] (Cbz-Leu-Leu-Leu-aldehyde) | rescued from down regulation | rescued from down regulation | not PGC1α proteins were rescued from down regulation | – | – | – | – | – | –
2 | benzo[α]pyrene [B[α]P] | – | – | – | significantly stronger stress than does wild-type | markedly increased susceptibility | more or less did not change | appears to be increased during stress conditions | more or less did not change | appears to be increased during stress conditions
